Tests used:
rice [1] = assay: Test B pre-/postemergence herbicide test; type: in vivo, Oryza sativa; conditions: preemergence, 125 g ai/ha; 0 to 100 scale, 0 is no effect, 100 is complete control
How it was run: (§1)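 Seeds were planted and treated preemergence with compounds formulated in a non-phytotoxic solvent mixture containing surfactant, while plants at the 1- to 4-leaf stage (2 to 18 cm) received postemergence sprays. Flooded paddy plants were grown to the 2-leaf stage. After 13 to 15 days in a greenhouse, injury was visually rated 0–100 against untreated controls.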

blackgrass = assay: Test B postemergence herbicide test; type: in vivo, Alopecurus myosuroides; conditions: scale 0 (no effect) to 100 (complete control)
How it was run: (§2)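 Paddy species grown to the 2-leaf stage under flooding; blackgrass sprayed postemergence at 2–18 cm (1- to 4-leaf stage). Plants kept in a greenhouse for 13 to 15 days, then visually rated against controls on 0 (no effect) to 100 (complete control).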

[2] = system: small flower umbrella sedge; assay: Test B flooded paddy test; type: in vivo, Cyperus difformis; conditions: 1000 g ai/ha, visual rating, scale 0 to 100 (0 no effect, 100 complete control), 13 to 15 days
How it was run: as §2

barnyardgrass [3] = assay: Test B flooded paddy test; type: in vivo, Echinochloa crus-galli; conditions: 1000 g ai/ha, visual rating, scale 0 to 100 (0 no effect, 100 complete control), 13 to 15 days
How it was run: as §2

barnyardgrass [4] = assay: Test B pre-/postemergence herbicide test; type: in vivo, Echinochloa crus-galli
How it was run: (§3)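 Test chemicals in a non-phytotoxic solvent mixture with surfactant were applied preemergence to seeded species and postemergence to plants 2-18 cm tall (1- to 4-leaf stage); rice and barnyardgrass were also tested in a flooded paddy at the 2-leaf stage. Visual rating versus controls after 13-15 days in greenhouse, scale 0 (no effect) to 100 (complete control).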

lambsquarters = assay: Test B pre-/postemergence herbicide test; type: in vivo, Chenopodium album
How it was run: as §1

velvetleaf = assay: Test B pre-/postemergence herbicide test; type: in vivo, Abutilon theophrasti
How it was run: as §1

corn = assay: Test B pre-/postemergence herbicide test; type: in vivo, Zea mays
How it was run: as §1

cocklebur = assay: Test B pre-/postemergence herbicide test; type: in vivo, Xanthium strumarium
How it was run: as §3

ducksalad = assay: Test B flooded paddy test; type: in vivo, Heteranthera limosa; conditions: 1000 g ai/ha, visual rating, scale 0 to 100 (0 no effect, 100 complete control), 13 to 15 days
How it was run: as §2

large crabgrass = assay: Test B pre-/postemergence herbicide test; type: in vivo, Digitaria sanguinalis
How it was run: as §1

giant foxtail = assay: Test B pre-/postemergence herbicide test; type: in vivo, Setaria faberi
How it was run: as §1

wheat = assay: Test B postemergence herbicide test; type: in vivo, Triticum aestivum; design: key to Wheat plant response rating: 0 = no effect, 100 = complete control; conditions: scale 0 (no effect) to 100 (complete control)
How it was run: (§4)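 Read-out: visual comparison with controls, scored 0 to 100, where 100 means complete control and 0 no effect. Formulated chemicals were applied postemergence to plants 2–18 cm tall (1- to 4-leaf), or to flooded-paddy plants at the 2-leaf stage, then held 13 to 15 days under glass.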

rice [5] = assay: Test B flooded paddy test; type: in vivo, Oryza sativa; conditions: 1000 g ai/ha, visual rating, scale 0 to 100 (0 no effect, 100 complete control), 13 to 15 days
How it was run: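 Visual ratings, 0 (no effect) to 100 (complete control), made versus controls after 13–15 d greenhouse. Paddy plants treated at 2-leaf stage; postemergence plants at 1- to 4-leaf stage, 2–18 cm tall.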

pigweed = assay: Test B pre-/postemergence herbicide test; type: in vivo, Amaranthus retroflexus
How it was run: as §1

wild oat = assay: Test B postemergence herbicide test; type: in vivo, Avena fatua; conditions: scale 0 (no effect) to 100 (complete control)
How it was run: as §4

Surinam grass = assay: Test B pre-/postemergence herbicide test; type: in vivo, Urochloa decumbens
How it was run: as §1

morningglory = assay: Test B pre-/postemergence herbicide test; type: in vivo, Ipomoea coccinea
How it was run: as §3

[6] = Postemergence, 500 g ai/ha, visual rating after 13 to 15 days
[7] = postemergence, 125 g ai/ha, visual rating
[8] = Postemergence, 500 g ai/ha, visual rating after 13 to 15 days, scale 0 (no effect) to 100 (complete control)
[9] = Preemergence, 500 g ai/ha, scale 0 to 100
[10] = postemergence, 125 g ai/ha, visual rating, scale 0 (no effect) to 100 (complete control)
[11] = preemergence, 125 g ai/ha, 0 to 100 scale, 0 is no effect, 100 is complete control

CCN(CC)C(=O)c1cc(NC(=O)c2cc(C(C)(C)C)nn2CC)ccc1C [Compound 69]
0: Plant response rating, Rice (rice [1]) | Sedge, Umbrella plant response rating [2] | Barnyardgrass plant response rating (barnyardgrass [3]) | Plant response rating, Barnyardgrass (barnyardgrass [4]; [8]) | Barnyardgrass plant response rating (barnyardgrass [4]; [9]) | Barnyardgrass plant response rating (barnyardgrass [4]; [10]) | Plant response rating, Barnyardgrass (barnyardgrass [4]; [11]) | Lambsquarters plant response rating (lambsquarters; [10]) | Plant response rating, Lambsquarters (lambsquarters; [11]) | Plant response rating, Velvetleaf (velvetleaf; [8]) | Velvetleaf plant response rating (velvetleaf; [10]) | Plant response rating, Velvetleaf (velvetleaf; [11]) | Plant response rating, Corn (corn; [8]) | Corn plant response rating (corn; [9]) | Corn plant response rating (corn; [10]) | Plant response rating, Corn (corn; [11]) | Plant response rating, Cocklebur (cocklebur; [8]) | Cocklebur plant response rating (cocklebur; [10]) | Plant response rating, Cocklebur (cocklebur; [11]) | Ducksalad plant response rating (ducksalad) | Plant response rating, Crabgrass, Large (large crabgrass; [8]) | Crabgrass, Large plant response rating (large crabgrass; [9]) | Crabgrass, Large plant response rating (large crabgrass; [10]) | Plant response rating, Crabgrass, Large (large crabgrass; [11]) | Plant response rating, Foxtail, Giant (giant foxtail; [8]) | Foxtail, Giant plant response rating (giant foxtail; [9]) | Foxtail, Giant plant response rating (giant foxtail; [10]) | Plant response rating, Foxtail, Giant (giant foxtail; [11]) | Plant response rating, Wheat (wheat; [6]) | Wheat plant response rating (wheat; [7]) | Rice plant response rating (rice [5]) | Plant response rating, Pigweed (pigweed; [11]) | Plant response rating, Surinam Grass (Surinam grass; [8]) | Surinam Grass plant response rating (Surinam grass; [10]) | Plant response rating, Surinam Grass (Surinam grass; [11]) | Plant response rating, Morningglory (morningglory; [8]) | Morningglory plant response rating (morningglory; [10]) | Plant response rating, Morningglory (morningglory; [11])
10: Blackgrass plant response rating (blackgrass; [7]) | Plant response rating, Lambsquarters (lambsquarters; [8]) | Pigweed plant response rating (pigweed; [10]) | Oat, Wild plant response rating (wild oat; [7])
20: Plant response rating, Pigweed (pigweed; [8]) | Plant response rating, Oat, Wild (wild oat; [6])
30: Plant response rating, Blackgrass (blackgrass; [6])

Reference: patent US20060069132A1, “Azolecarboxamide herbicides” (priority 2004, published 2006)
